Test results published in article PMC4079689, “HIV Treatments Reduce Malaria Liver Stage Burden in a Non-Human Primate Model of Malaria Infection at Clinically Relevant Concentrations In Vivo” (PLoS ONE, 2014).
Like-named read-outs stand apart in the source and are kept apart here. Values belong to the molecule of their own block, whether it stands above or below them.

Columns and labels:
[1] = Indian origin, rhesus monkey, in vivo, po
in vivo = conditions: Indian origin, rhesus monkey, po; for Cmax: 50 mg/kg
[2] = design: method as in Ibarra et al. Eur J Pharm Sci. 2012;46(5):516–21; conditions: human historical data, LPV-RTV; ref Ibarra et al. Eur J Pharm Sci. 2012;46(5):516–21; cited from earlier work
[3] = Pharmacokinetic study, single dose by gavage, plasma HPLC-MS/MS
[4] = human historical data, cited from earlier work
[5] = test system: P. knowlesi asexual blood stage parasites; design: method as in PMID 21486958; conditions: rhesus macaques; cited from earlier work
[6] = rhesus JMF, dosing regimen LPV-RTV+TMP-SMX, sedated
[7] = rhesus JRH, dosing regimen LPV-RTV+TMP-SMX, awake
[8] = rhesus LK8A, dosing regimen LPV-RTV alone, sedated
[9] = TMP-SMX, ref Patel et al. 1980, Dudley et al. 1984

Cmax [1]: 10900 ng/mL | AUC(0-t) (in vivo; in vivo): 171000 ng·h/mL | Cmax (in vivo; in vivo): 10300 ng/mL
Compound: Cc1cccc(C)c1OCC(=O)N[C@@H](Cc1ccccc1)[C@@H](O)C[C@H](Cc1ccccc1)NC(=O)[C@H](C(C)C)N1CCCNC1=O [Lopinavir]
AUC0–24 [2]: 95000 ng·h/mL | Cmax [2]: 7060 ng/mL | T1/2 [2]: 5.2 h | Tmax [2]: 3 to 6 h

AUC0–24 [3, 7]: 23200 ng·h/mL | Tmax [3, 7]: 6.0 h | Cmax (in vivo; plasma): 3600 ng/mL
Compound: CC(C)c1nc(CN(C)C(=O)N[C@H](C(=O)N[C@@H](Cc2ccccc2)C[C@H](O)[C@H](Cc2ccccc2)NC(=O)OCc2cncs2)C(C)C)cs1 [Ritonavir]
AUC0–24 [3, 6]: 11100 ng·h/mL | Tmax [3, 6]: 24.0 h | AUC0–24 [3, 8]: 37800 ng·h/mL | Tmax [3, 8]: 8.0 h | AUC0–24 [2]: 4310 ng·h/mL | T1/2 [2]: 5.12 h | Tmax [2]: 3 to 6 h

Compound: COc1cc(Cc2cnc(N)nc2N)cc(OC)c1OC [Trimethoprim]
T1/2 [4, 9]: 8 to 10 h | Tmax [4, 9]: 1 to 4 h | AUC0–24 ([4]; dose 5 mg/kg trimethoprim and 25 mg/kg sulfamethoxazole iv, ref Dudley et al. Antimicrob Agents Chemother 1984;26:811–814): 32.6 ^2 µg*hr/mL | Cmax ([4]; dose 160 mg trimethoprim and 800 mg sulfamethoxazole, ref Patel et al. Clin Pharmacokinet 1980;5:405–423): 1–2 ^1 µg/mL | Cmax [1]: 130 ng/mL | AUC(0-t) (in vivo; in vivo): 1730 ng·h/mL

Compound: CC(C)(C)NC(=O)[C@@H]1CN(Cc2cccnc2)CCN1C[C@@H](O)C[C@@H](Cc1ccccc1)C(=O)N[C@H]1c2ccccc2C[C@H]1O [indinavir]
Killing activity against P. knowlesi [5]: exhibited killing activity
